Data on six compounds can be found in DBAASP.

Each structure is given as a SMILES string. In brackets after ≈: the same amount, converted by molar mass. Several values for one entry are separate records, joined by “and”; a condition that tells them apart may be missing. Equal values may be shown once.

Common to all, as to experiment: ≥ marks a high value that may be exact or a test limit, other limits are often not marked, values filed in µg/mL are converted to µM
Assay [1] has as its system Escherichia coli CCARM 1229.
For assay [2], the system named is Pseudomonas aeruginosa CCARM 2002.
The test system of assay [3] is Escherichia coli KCTC 1682.
For assay [4], the system named is Salmonella typhimurium KCTC 1926.
For assay [5], the system named is Staphylococcus epidermidis KCTC 1917.
Assay [6] has as its system Pseudomonas aeruginosa KCTC 2004.
Assay [7] relates to Staphylococcus aureus CCARM 3126.
Assay [8] deals with Bacillus subtilis KCTC 3068.
Assay [9] relates to Salmonella typhimurium CCARM 8007.
Assay [10] has as its system Staphylococcus aureus KCTC 1621.
In assay [11] the test system is Acinetobacter baumannii KCTC 2508.
In assay [12] the test system is Acinetobacter baumannii CCARM 12035.
Assay [13] concerns Pseudomonas aeruginosa ATCC 27853.
The test system of assay [14] is Escherichia coli ATCC 25922.
The subject of assay [15] is Klebsiella pneumoniae ATCC BAA-2146.
Assay [16] deals with Klebsiella pneumoniae ATCC 700603.
Assay [17] deals with Staphylococcus aureus ATCC 43300.
For assay [18], the system named is Klebsiella pneumoniae ATCC 13883.
For assay [19], the system named is Klebsiella pneumoniae.
Assay [20] has as its system Candida albicans ATCC 90028.
Assay [21] concerns Pseudomonas aeruginosa.
Assay [22] concerns Acinetobacter baumannii ATCC 19606.
Assay [23] relates to Acinetobacter baumannii.
The test system of assay [24] is Bacillus subtilis ATCC 6051.
Assay [25] deals with Cryptococcus neoformans ATCC 208821.
The subject of assay [26] is Escherichia coli UB1005.
For assay [27], the system named is Salmonella enterica subsp. enterica serovar Typhimurium ATCC 14028s.
Assay [28] relates to Enterococcus faecalis ATCC 29212.
Assay [29] relates to Staphylococcus epidermidis C621.
Assay [30] deals with Pseudomonas aeruginosa K799.
In assay [31] the test system is Staphylococcus aureus ATCC 25923.
For assay [32], the system named is Staphylococcus aureus.
The test system of assay [33] is Pseudomonas aeruginosa PA14.
In assay [34] the test system is Pseudomonas aeruginosa PAO1.
For assay [35], the system named is Escherichia coli.
Assay [36] deals with Escherichia coli ATCC 8739.

By MIC is commonly meant the lowest concentration that inhibits growth of the organism. Higher therefore signals a need for much substance. Consider `CC[C@H](C)[C@H](NC(=O)[C@H](CCCCN)NC(=O)[C@H](Cc1c[nH]c2ccccc12)NC(=O)[C@@H](N)CCCN=C(N)N)C(=O)N[C@@H](Cc1ccccc1)C(=O)N[C@@H](CCCCN)C(=O)N[C@@H](CCCCN)C(=O)N[C@H](C(=O)N[C@H](C(=O)N[C@@H](CCCCN)C(=O)N[C@@H](CCCCN)C(=O)N[C@@H](C)C(N)=O)C(C)C)C(C)C` [RWKIFKKVVKKA], for which the MIC was 16 µM (≈ 24.5 µg/mL) in [1]; 16 µM (≈ 24.5 µg/mL) in assay [2]; 8 µM (≈ 12.2 µg/mL) in [3]; at least 32 µM in [4]; 16 µM (≈ 24.5 µg/mL) in assay [5]; 8 µM (≈ 12.2 µg/mL) in assay [6]. In addition, the minimum inhibitory concentration (MIC) is 16 µM (≈ 24.5 µg/mL) in [7]; 16 µM (≈ 24.5 µg/mL) in assay [8]; 16 µM (≈ 24.5 µg/mL) in [9]; 8 µM (≈ 12.2 µg/mL) in assay [10]; 8 µM (≈ 12.2 µg/mL) in assay [11]; 8 µM (≈ 12.2 µg/mL) in [12].
With `CC[C@H](C)[C@@H]1NC(=O)CNC(=O)[C@H](C)NC(=O)[C@H](Cc2ccc(O)cc2)NC(=O)[C@@H]2CSSC[C@H](NC1=O)C(=O)N[C@@H](Cc1ccc(O)cc1)C(=O)N[C@@H](CCCN=C(N)N)C(=O)N[C@@H](CCCN=C(N)N)C(=O)N[C@H](C(=O)N[C@@H](CCCN=C(N)N)C(=O)O)CSSC[C@H](NC(=O)[C@H](Cc1c[nH]c3ccccc13)NC(=O)[C@@H](N)CCCCN)C(=O)N[C@@H](Cc1ccccc1)C(=O)N[C@@H](CCCN=C(N)N)C(=O)N[C@@H](CCCN=C(N)N)C(=O)N2` [KWCFRRCYAGICYRRCR], the MIC in assay [13] is over 7.14 µM; in [14], 0.223 µM (≈ 0.499 µg/mL); in [15], 7.14 µM (≈ 16 µg/mL); in assay [16] it was 7.14 µM (≈ 16 µg/mL); in assay [17] it was over 7.14 µM; in assay [18], 7.14 µM (≈ 16 µg/mL). Also, the MIC in [19] was over 7.14 µM; in assay [20], 7.14 µM (≈ 16 µg/mL); in [21], over 7.14 µM; in assay [22], 7.14 µM (≈ 16 µg/mL); in assay [23], 7.14 µM (≈ 16 µg/mL); in assay [24], 0.112 µM (≈ 0.25 µg/mL). In addition, the MIC in [25] was 1.79 µM (≈ 3.99 µg/mL).
For `CC[C@H](C)[C@@H]1NC(=O)CNC(=O)[C@H](CCCN=C(N)N)NC(=O)[C@H](Cc2ccc(O)cc2)NC(=O)[C@@H]2CSSC[C@H](NC1=O)C(=O)N[C@@H](Cc1ccc(O)cc1)C(=O)N[C@@H](CCCN=C(N)N)C(=O)N[C@@H](CCCN=C(N)N)C(=O)N[C@H](C(=O)N[C@@H](CCCN=C(N)N)C(=O)O)CSSC[C@H](NC(=O)[C@H](Cc1c[nH]c3ccccc13)NC(=O)[C@@H](N)CCCCN)C(=O)N[C@@H](Cc1ccccc1)C(=O)N[C@@H](CCCN=C(N)N)C(=O)N[C@@H](C)C(=O)N2` [KWCFRACYRGICYRRCR], the MIC in assay [13] came to 0.446 µM (≈ 0.998 µg/mL); in assay [14], 0.112 µM (≈ 0.25 µg/mL); in assay [15], 0.446 µM (≈ 0.998 µg/mL); in [16], 0.446 µM (≈ 0.998 µg/mL); in [17] it was 1.79 µM (≈ 3.99 µg/mL); in assay [18], 0.112 µM (≈ 0.25 µg/mL). Moreover, the MIC amounted to 7.14 µM (≈ 16 µg/mL) in assay [19]; 3.57 µM (≈ 7.99 µg/mL) in assay [20]; 0.893 µM (≈ 2 µg/mL) in assay [21]; 0.112 µM (≈ 0.25 µg/mL) in assay [22]; 0.223 µM (≈ 0.499 µg/mL) in assay [23]; 0.112 µM (≈ 0.25 µg/mL) in assay [24]. In [25], this compound yielded an MIC of 0.446 µM (≈ 0.998 µg/mL).
Take `CC[C@H](C)[C@H](NC(=O)[C@@H]1CSSC[C@H](NC(=O)[C@@H](NC(=O)[C@@H](N)CCCN=C(N)N)[C@@H](C)CC)C(=O)N[C@@H](CCCN=C(N)N)C(=O)N[C@@H]([C@@H](C)CC)C(=O)N[C@@H](C(C)C)C(=O)N[C@@H](C(C)C)C(=O)N[C@@H]([C@@H](C)CC)C(=O)N[C@@H](CCCN=C(N)N)C(=O)N1)C(=O)N[C@@H](CCCN=C(N)N)C(N)=O` [RICRIVVIRCIR]: the minimum inhibitory concentration (MIC) in assay [26] is 2.67 µM (≈ 3.99 µg/mL); in [27], 5.33 µM (≈ 7.98 µg/mL); in [28], over 21.3 µM; in assay [29] it was 5.33 µM (≈ 7.98 µg/mL); in assay [30] it was 10.7 µM (≈ 16 µg/mL); in assay [31], 21.3 µM (≈ 31.9 µg/mL).
For the compound `CC[C@H](C)[C@H](NC(=O)[C@H](CCCCN)NC(=O)[C@H](CCCCN)NC(=O)[C@H](Cc1ccccc1)NC(=O)[C@@H](NC(=O)[C@H](CCCCN)NC(=O)[C@H](Cc1c[nH]c2ccccc12)NC(=O)[C@@H](N)CCCN=C(N)N)[C@@H](C)CC)C(=O)N[C@@H](CCC(=O)O)C(=O)N[C@@H](CCCCN)C(=O)N[C@H](C(=O)NCC(N)=O)C(C)C` [RWKIFKKIEKVG], the MIC in assay [1] was at least 64 µM; in assay [2], 16 µM (≈ 24.5 µg/mL); in assay [3], 16 µM (≈ 24.5 µg/mL); in [4] it was at least 64 µM; in assay [5], at least 64 µM; in assay [6] it was 8 µM (≈ 12.2 µg/mL). Moreover, the MIC in [7] was at least 64 µM; in assay [8], at least 64 µM; in [9], at least 32 µM; in assay [10] it was 16 µM (≈ 24.5 µg/mL); in [11], at least 64 µM; in assay [12], 16 µM (≈ 24.5 µg/mL).
Turning to `CC[C@H](C)[C@H](NC(=O)[C@H](CCCCN)NC(=O)[C@H](CC(C)C)NC(=O)[C@H](CCCN=C(N)N)NC(=O)[C@H](CC(C)C)NC(=O)[C@H](CCCCN)NC(=O)[C@H](CCCCN)NC(=O)[C@H](CC(C)C)NC(=O)[C@H](CC(C)C)NC(=O)[C@H](CCCCN)NC(=O)[C@H](CCCCN)NC(=O)[C@H](CC(N)=O)NC(=O)[C@H](CCCN=C(N)N)NC(=O)[C@H](C)NC(=O)[C@H](CCSC)NC(=O)[C@@H]1CCCN1)C(=O)N[C@@H](C)C(=O)N[C@@H](Cc1ccccc1)C(=O)N[C@@H](CCCCN)C(=O)O` [PMARNKKLLKKLRLKIAFK], the minimal inhibitory concentration (MIC) in assay [13] is 16 µM (≈ 36.8 µg/mL); in [14] it was 8 µM (≈ 18.4 µg/mL); in [32] it was over 64 µM; in assay [19], 16 µM (≈ 36.8 µg/mL); in assay [33], 8 µM (≈ 18.4 µg/mL); in [34], 8 µM (≈ 18.4 µg/mL). In addition, the MIC in [35] was 8 µM (≈ 18.4 µg/mL); in assay [36], 8 µM and 6.97 µM; in assay [31] it was 64 µM and 55.7 µM.
